According to patent US7375220B2, “Method of treating diseases and conditions associated with an altered level of amyloid β peptides and new enolcarboxamide compounds” (Boehringer Ingelheim Vetmedica GmbH, priority 2004, dated 2008):

Legend:
[1] = test system: Aβ42; conditions: according to table 3 of WO 01/78721; cited from earlier work

| SMILES | melting point | Aβ42 level [1] |
| --- | --- | --- |
| CN1C(=O)C(C(=O)Nc2ccc(Cl)cc2)c2ccc3c(c2S1(=O)=O)CCCC3 (centres unmarked) [Example 13, 3,4,7,8,9,10-Hexahydro-2-methyl-3-oxo-2H-naphtho[2,1-e]-1,2-thiazine-4-(4-chloro)carboxanilide 1,1-dioxide] | 106 to 108 °C |  |
| Cc1cc(NC(=O)C2=C(O)c3ccccc3S(=O)(=O)N2C)no1 [isoxicam] |  | do not lower or even increase the Aβ42 level |
| CN1C(C(=O)Nc2ccccn2)=C(O)c2ccccc2S1(=O)=O [piroxicam] |  | do not lower or even increase the Aβ42 level |

Further lines, with some results ahead:

| melting point | SMILES | Aβ42 level [1] |
| --- | --- | --- |
| 198 to 199 °C | O=C(Nc1ccccc1C(F)(F)F)C1C(=O)N(Cc2ccc(F)cc2)S(=O)(=O)c2ccc(Cl)cc21 (centres unmarked) [Example 14, 6-Chloro-3,4-dihydro-2-(4-fluorobenzyl)-3-oxo-2H-1,2-benzothiazine-4-(2-trifluoromethyl)carboxanilide 1,1-dioxide] |  |
| 183 to 184 °C | O=C(Nc1cccc(C(F)(F)F)c1)C1C(=O)N(Cc2ccc(F)cc2)S(=O)(=O)c2ccc(Cl)cc21 (centres unmarked) [Example 15, 6-Chloro-3,4-dihydro-2-(4-fluorobenzyl)-3-oxo-2H-1,2-benzothiazine-4-(3-trifluoromethyl)carboxanilide 1,1-dioxide] |  |
